Experiments:
[1] = target: T1, TXK (Homo sapiens, UniProt P42681); test: scanMAX binding POC, TXK; details: 1 μM
T1 sequence (P42681 1-527): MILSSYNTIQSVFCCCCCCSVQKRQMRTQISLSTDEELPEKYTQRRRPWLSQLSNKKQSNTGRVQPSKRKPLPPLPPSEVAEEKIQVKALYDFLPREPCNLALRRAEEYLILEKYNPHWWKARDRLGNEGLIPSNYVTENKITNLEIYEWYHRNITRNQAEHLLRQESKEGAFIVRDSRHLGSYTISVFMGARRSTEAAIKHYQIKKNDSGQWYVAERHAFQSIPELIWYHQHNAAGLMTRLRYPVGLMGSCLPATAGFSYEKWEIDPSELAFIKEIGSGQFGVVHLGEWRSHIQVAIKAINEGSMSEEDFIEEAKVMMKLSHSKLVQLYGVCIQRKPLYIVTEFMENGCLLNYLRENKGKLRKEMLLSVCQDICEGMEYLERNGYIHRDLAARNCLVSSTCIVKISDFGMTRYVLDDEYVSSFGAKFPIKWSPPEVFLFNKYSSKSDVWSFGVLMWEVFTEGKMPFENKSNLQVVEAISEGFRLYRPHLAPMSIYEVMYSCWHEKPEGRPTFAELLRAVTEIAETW
Excerpt: (§1) Comprehensive Characterization of Bruton’s Tyrosine Kinase Inhibitor Specificity, Potency, and
(§2) Biological Effects: Insights into Covalent and Non-Covalent Mechanistic Signatures
(§3) Antonia C. Darragh1, Andrew M. Hanna1, Justin H. Lipner2, Alastair J. King2, Nicole B. Servant1, Mirza Jahic1*
(§4) *To whom correspondence should be addressed: Mirza Jahic, e-mail address: Mirza.Jahic@discovery.eurofinsus.com
(§5) Supporting Table S1. Comparison of BTK inhibitor specificity to TEC family members. TEC family members are
(§6) Burton’s tyrosine kinase (BTK), tyrosine kinase expressed in hepatocellular carcinoma (TEC), bone marrow-
(§7) expressed kinase (BMX/ETK), and T cell-expressed kinase (TXK/RLK), and interleukin-2-inducible T cell kinase
(§8) A zero POC signifies that the compound

[2] = target: JNK1 (MAPK8) (Homo sapiens, UniProt P45983); test: scanMAX binding POC, JNK1; details: 1 μM
Chain of JNK1 (MAPK8) (P45983 whole entry): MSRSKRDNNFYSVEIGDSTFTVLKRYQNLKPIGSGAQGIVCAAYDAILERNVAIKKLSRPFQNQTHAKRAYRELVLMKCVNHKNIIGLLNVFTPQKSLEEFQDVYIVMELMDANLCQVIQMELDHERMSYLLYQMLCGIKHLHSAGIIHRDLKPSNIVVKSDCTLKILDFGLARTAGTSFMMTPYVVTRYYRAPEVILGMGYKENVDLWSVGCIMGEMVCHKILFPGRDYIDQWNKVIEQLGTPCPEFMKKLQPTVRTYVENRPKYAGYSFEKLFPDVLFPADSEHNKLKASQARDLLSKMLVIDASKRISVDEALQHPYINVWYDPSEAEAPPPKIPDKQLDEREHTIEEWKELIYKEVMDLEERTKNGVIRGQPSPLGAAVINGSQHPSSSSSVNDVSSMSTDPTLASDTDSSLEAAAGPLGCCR

[3] = target: BLK (Homo sapiens, UniProt P51451); test: scanMAX binding POC, BLK; details: 1 μM
Chain of BLK (P51451 whole entry): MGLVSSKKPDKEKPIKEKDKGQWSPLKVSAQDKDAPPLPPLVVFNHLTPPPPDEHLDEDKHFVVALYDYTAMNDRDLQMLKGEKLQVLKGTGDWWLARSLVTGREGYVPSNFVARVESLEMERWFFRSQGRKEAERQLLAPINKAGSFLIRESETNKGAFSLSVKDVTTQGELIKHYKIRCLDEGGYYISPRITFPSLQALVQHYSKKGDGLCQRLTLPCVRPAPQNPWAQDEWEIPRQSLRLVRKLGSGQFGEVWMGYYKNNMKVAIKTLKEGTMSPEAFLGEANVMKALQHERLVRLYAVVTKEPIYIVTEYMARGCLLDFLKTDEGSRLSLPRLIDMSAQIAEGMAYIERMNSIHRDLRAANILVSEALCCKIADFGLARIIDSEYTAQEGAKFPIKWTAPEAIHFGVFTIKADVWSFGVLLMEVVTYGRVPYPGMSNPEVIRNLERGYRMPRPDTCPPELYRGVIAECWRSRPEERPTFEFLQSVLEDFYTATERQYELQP

[4] = target: JNK2 (MAPK9) (Homo sapiens, UniProt P45984); test: scanMAX binding POC, JNK2; details: 1 μM
Chain of JNK2 (MAPK9) (P45984 whole entry): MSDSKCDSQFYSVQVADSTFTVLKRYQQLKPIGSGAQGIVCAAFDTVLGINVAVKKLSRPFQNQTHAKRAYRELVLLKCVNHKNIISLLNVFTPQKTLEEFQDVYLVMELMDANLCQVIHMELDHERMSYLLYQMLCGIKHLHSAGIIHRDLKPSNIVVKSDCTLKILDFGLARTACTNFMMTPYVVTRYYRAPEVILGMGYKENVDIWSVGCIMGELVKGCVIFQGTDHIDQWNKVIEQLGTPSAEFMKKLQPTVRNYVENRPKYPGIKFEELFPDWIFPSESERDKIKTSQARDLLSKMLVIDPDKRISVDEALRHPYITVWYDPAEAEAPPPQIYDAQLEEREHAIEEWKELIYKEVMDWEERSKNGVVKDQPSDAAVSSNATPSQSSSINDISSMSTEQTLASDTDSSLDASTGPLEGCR

[5] = test system: BTK; details: cited from earlier work
[6] = target: T2, JAK3 (JH1 catalytic domain) (Homo sapiens, UniProt P52333); test: scanMAX binding POC, JAK3; details: 1 μM
T2 construct: The JAK3 POC is for its JH1 catalytic domain

[7] = test system: patients with CLL; set-up: method as in NCT02477696; details: phase III, P = 0.02, ref NCT02477696; cited from earlier work
[8] = target: EGFR (Homo sapiens, UniProt P00533); test: scanMAX binding POC, EGFR; details: 1 μM
Chain of EGFR (P00533 25-1210): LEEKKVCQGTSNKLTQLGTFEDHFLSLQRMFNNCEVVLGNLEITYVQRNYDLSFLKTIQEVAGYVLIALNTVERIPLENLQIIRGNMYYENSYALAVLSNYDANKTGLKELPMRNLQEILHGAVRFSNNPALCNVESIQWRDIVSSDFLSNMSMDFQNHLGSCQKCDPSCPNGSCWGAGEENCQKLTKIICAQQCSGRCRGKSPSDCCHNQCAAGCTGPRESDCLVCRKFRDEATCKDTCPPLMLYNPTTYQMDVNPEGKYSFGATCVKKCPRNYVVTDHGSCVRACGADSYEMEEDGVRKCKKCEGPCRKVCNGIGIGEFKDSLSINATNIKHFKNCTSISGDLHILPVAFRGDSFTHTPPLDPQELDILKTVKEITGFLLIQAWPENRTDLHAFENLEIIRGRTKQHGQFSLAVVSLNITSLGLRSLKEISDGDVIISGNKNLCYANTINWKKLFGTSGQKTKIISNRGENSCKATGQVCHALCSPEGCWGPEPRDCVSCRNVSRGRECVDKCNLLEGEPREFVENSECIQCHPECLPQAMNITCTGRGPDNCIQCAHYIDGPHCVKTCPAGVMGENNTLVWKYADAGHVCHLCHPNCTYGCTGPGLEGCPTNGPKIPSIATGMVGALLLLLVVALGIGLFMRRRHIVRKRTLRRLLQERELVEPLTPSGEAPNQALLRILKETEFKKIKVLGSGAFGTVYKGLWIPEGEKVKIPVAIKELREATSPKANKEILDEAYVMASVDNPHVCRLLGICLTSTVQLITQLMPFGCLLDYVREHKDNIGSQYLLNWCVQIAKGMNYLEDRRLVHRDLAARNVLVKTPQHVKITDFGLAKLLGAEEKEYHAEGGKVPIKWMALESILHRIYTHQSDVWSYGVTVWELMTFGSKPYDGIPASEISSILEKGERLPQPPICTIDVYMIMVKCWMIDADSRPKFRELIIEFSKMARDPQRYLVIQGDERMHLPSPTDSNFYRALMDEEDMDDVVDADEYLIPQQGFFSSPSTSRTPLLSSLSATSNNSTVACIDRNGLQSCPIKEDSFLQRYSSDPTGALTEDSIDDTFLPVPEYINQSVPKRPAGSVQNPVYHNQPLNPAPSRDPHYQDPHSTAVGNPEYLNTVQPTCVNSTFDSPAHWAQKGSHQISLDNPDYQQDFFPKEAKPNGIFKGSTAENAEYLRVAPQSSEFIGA

[9] = target: ERBB2 (Homo sapiens, UniProt P04626); test: scanMAX binding POC, ERBB2; details: 1 μM
Chain of ERBB2 (P04626 23-1255): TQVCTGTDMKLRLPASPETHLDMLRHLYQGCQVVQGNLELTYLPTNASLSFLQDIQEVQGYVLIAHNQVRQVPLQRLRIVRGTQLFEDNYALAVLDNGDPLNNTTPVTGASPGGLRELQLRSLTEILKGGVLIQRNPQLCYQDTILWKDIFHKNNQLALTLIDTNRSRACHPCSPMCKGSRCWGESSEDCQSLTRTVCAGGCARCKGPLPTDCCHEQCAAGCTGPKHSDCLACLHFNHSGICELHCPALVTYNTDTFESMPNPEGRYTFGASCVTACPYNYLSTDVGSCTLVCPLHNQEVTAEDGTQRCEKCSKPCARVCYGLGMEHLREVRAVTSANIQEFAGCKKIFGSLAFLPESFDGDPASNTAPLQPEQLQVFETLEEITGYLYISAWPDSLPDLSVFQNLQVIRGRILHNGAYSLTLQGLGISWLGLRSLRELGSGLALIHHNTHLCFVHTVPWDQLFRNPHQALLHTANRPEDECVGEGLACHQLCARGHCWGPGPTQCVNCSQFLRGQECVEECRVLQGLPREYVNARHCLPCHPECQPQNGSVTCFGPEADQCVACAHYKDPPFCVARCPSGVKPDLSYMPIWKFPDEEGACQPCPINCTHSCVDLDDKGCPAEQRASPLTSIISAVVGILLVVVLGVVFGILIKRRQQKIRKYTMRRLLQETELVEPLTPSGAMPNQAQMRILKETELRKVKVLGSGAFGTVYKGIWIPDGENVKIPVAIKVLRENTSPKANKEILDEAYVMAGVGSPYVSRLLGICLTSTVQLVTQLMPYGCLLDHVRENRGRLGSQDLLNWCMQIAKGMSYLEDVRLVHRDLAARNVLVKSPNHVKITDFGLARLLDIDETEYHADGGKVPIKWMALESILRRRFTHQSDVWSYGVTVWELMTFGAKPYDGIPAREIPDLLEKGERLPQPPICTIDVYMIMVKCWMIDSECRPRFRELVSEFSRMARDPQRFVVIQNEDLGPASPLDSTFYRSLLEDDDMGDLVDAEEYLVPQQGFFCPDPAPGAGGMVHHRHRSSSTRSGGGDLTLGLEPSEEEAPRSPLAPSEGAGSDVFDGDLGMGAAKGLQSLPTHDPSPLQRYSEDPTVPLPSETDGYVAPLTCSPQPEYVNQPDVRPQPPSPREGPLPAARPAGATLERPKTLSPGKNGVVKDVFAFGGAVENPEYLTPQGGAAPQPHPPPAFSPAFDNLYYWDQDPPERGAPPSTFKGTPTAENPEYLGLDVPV

[10] = target: BTK C481S; details: average of literature values; read-out: average published Kd for BTK C481S; cited from earlier work
[11] = target: JNK3 (MAPK10) (Homo sapiens, UniProt P53779); test: scanMAX binding POC, JNK3; details: 1 μM
[12] = target: T3, TEC (Homo sapiens, UniProt P42680); test: scanMAX binding POC, TEC; details: 1 μM
T3 sequence (P42680 1-631): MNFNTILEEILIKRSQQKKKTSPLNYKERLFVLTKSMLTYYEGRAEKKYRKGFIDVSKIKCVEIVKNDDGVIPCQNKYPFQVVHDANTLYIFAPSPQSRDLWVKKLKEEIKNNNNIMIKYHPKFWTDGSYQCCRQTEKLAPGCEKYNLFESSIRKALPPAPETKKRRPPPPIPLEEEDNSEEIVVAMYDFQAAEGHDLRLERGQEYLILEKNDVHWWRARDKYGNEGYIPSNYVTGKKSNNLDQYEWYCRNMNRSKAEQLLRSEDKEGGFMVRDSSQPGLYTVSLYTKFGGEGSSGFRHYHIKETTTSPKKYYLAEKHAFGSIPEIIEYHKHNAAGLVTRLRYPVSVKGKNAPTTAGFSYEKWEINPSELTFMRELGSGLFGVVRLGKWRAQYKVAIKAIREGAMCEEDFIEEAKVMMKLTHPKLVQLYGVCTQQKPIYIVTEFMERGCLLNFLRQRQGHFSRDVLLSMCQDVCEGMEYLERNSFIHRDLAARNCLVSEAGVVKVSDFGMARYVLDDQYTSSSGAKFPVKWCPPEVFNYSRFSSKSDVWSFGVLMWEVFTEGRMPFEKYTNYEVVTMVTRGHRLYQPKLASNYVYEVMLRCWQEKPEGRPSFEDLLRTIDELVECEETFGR
Excerpt: as §1, §2, §3, §4, §5, §6, §7, §8

[13] = target: T4, ITK (Homo sapiens, UniProt Q08881); test: scanMAX binding POC, ITK; details: 1 μM
T4 sequence (Q08881 1-620): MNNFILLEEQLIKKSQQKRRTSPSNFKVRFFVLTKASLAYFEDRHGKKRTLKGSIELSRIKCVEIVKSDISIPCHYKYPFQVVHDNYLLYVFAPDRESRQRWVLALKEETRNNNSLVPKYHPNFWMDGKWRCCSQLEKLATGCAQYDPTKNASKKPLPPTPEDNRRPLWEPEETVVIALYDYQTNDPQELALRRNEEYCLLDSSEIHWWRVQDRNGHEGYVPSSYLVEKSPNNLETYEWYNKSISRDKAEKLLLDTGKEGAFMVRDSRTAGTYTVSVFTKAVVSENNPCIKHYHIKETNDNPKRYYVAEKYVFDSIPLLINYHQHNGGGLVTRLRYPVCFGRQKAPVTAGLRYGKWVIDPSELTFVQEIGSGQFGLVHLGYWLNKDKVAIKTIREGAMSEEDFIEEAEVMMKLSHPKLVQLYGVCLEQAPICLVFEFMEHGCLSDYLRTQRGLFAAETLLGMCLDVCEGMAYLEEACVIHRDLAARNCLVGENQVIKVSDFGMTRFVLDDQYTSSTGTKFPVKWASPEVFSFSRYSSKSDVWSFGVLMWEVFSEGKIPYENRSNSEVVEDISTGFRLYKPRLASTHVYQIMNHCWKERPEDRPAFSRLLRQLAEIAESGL
Excerpt: as §1, §2, §3, §4, §5, §6, §7, §8

[14] = target: T5, MKK7 (Homo sapiens, UniProt O14733); test: scanMAX binding POC, MKK7; details: 1 μM
T5 sequence (O14733 1-419): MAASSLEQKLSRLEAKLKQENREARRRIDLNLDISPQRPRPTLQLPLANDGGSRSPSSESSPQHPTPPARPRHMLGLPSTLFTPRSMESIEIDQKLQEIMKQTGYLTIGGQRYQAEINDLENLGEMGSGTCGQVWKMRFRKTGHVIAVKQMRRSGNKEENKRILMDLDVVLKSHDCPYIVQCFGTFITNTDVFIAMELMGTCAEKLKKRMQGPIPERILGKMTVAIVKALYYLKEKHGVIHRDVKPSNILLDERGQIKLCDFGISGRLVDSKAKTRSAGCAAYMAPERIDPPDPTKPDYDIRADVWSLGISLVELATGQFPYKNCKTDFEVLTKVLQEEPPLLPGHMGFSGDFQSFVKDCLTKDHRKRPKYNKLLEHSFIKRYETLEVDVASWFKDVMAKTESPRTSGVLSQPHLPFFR

[15] = target: ERBB4 (Homo sapiens, UniProt Q15303); test: scanMAX binding POC, ERBB4; details: 1 μM
[16] = target: ERBB3 (Homo sapiens, UniProt P21860); test: scanMAX binding POC, ERBB3; details: 1 μM
Chain of ERBB3 (P21860 20-1342): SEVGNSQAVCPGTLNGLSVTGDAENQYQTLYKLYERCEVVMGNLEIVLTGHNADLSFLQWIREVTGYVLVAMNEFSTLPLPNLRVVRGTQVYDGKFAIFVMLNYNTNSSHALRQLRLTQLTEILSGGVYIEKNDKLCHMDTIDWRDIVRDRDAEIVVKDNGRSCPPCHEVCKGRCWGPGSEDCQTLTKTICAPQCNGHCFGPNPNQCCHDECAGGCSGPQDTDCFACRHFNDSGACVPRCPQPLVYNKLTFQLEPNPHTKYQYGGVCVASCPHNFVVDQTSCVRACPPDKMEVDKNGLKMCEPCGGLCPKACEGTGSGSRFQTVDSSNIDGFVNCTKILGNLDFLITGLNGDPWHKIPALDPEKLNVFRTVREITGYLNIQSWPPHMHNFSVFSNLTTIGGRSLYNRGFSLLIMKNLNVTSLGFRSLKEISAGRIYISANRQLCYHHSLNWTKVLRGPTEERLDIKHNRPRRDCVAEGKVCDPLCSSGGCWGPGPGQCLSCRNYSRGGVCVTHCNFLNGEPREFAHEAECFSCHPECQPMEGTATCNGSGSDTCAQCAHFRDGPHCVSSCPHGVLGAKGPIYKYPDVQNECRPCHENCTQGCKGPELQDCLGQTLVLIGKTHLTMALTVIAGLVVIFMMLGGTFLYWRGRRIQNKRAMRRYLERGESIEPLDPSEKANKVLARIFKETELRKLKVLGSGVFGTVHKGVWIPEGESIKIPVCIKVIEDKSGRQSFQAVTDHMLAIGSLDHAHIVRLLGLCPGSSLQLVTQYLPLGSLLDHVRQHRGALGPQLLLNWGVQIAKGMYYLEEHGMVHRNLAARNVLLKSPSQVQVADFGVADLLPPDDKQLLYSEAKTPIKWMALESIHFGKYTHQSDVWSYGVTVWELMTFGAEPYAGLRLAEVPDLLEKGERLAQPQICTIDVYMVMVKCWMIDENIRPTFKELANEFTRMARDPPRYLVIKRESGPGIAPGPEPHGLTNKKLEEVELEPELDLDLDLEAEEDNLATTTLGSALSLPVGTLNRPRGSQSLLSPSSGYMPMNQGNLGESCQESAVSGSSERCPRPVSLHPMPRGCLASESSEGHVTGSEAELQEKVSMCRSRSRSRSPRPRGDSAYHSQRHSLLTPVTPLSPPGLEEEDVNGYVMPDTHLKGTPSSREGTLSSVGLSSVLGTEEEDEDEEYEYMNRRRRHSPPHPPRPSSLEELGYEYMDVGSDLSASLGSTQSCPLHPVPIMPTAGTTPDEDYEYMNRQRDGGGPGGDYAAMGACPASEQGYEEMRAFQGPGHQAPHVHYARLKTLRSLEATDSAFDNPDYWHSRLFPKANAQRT

[17] = target: T6, BTK (Homo sapiens, UniProt Q06187); test: scanMAX binding POC, BTK; details: 1 μM; zero POC = competition comparable to positive control
T6 construct: host or cells: transiently transfected HEK293 cells
Excerpt: as §1, §2, §3, §4, §5, §6, §7, §8

[18] = test system: R/R PCNSL lymphoma patients; details: three-year follow-up; cited from earlier work

SMILES | TXK binding POC [1] | JNK1 (MAPK8) POC [2] | BLK binding POC [3] | JNK2 (MAPK9) POC [4] | IC50 [5] [nM] | JAK3 binding POC [6] | adverse cardiovascular events [7] [%] | EGFR binding POC [8] | ERBB2 binding POC [9] | Kd [10] [nM] | JNK3 (MAPK10) POC [11] | TEC binding POC [12] | ITK binding POC [13] | MKK7 binding POC [14] | ERBB4 binding POC [15] | ERBB3 binding POC [16] | BTK binding POC [17] | overall response rate [18] [%]
CC#CC(=O)N1CCC[C@H]1c1nc(-c2ccc(C(=O)Nc3ccccn3)cc2)c2c(N)nccn12 [Acalabrutinib] | 47% of control | 93% of control | 57% of control | 58% of control | […] | 80% of control | 9.4 | 61% of control | 4.7% of control | 358 | 97% of control | 14% of control | 100% of control | 75% of control | 6.9% of control | 64% of control | 0.2% of control | –
CC#CC(=O)N1CC[C@@H](n2c(=O)n(-c3ccc(Oc4ccccc4)cc3)c3c(N)ncnc32)C1 [Tirabrutinib] | 14% of control | 99% of control | 14% of control | 92% of control | […] | – | – | 74% of control | 26% of control | – | […] | 9.4% of control | – | 87% of control | 85% of control | 12% of control | 0.35% of control | 63.6
